A short description of data set [1]: Ratio of AUClast in FVB mouse brain to FVB mouse plasma. Type of data set: ADME. To be noted: read-out: Ratio AUC.
Data set [2] can be described thus: Cmax in FVB mouse plasma at 10 mg/kg, po qd. Type of data set: ADME, organism-based. Also on record: dose 10 mg/kg, route oral.
Data set [3] in a line: AUClast in FVB mouse plasma at 10 mg/kg, po qd. It is filed as ADME, organism-based. Also on record: time 0 - last, dose 10 mg/kg, route oral.
Data set [4] is described as follows: AUClast in FVB mouse brain at 10 mg/kg, po qd. Type of data set: ADME, organism-based. Also on record: time 0 - last, dose 10 mg/kg, route oral.
The nature of data set [5]: Inhibition of RML prion protein infected in mouse dividing ScN2a-cl3 cells expressing full length mouse PrP assessed as reduction of PrPsc level after 5 days by Western blotting analysis. It is filed as cell-based. To be noted: N2a-cl3, 120 h. (In general: Immunoblotting shows a protein as a band on a membrane.)
A further data set can be described thus: cells. It is filed as cell-based. To be noted: Mus musculus, N2a-cl3, 120 h.
Data set [6] in a line: Cytotoxicity against mouse stationary-phase ScN2a-cl3 cells assessed as cell viability after 5 days by calcein-AM staining-based fluorescence assay. On the set-up: species or system N2a-cl3. To be noted: read-out: LC50.
Data set [7] can be described thus: Inhibition of RML prion protein infected in mouse stationary-phase ScN2a-cl3 cells expressing full length mouse PrP assessed as reduction of PrPsc level after 5 days. Type of data set: cell-based. As to conditions: N2a-cl3, 120 h.
Data set [8] relates to N2a-cl3. The data set can be described thus: Inhibition of RML prion protein infected in mouse dividing ScN2a-cl3 cells expressing full length mouse PrP assessed as reduction of PrPsc level at 10 uM after 5 days by ELISA. It is filed as cell-based. On the technique in general: ELISA stands for enzyme-linked immunosorbent assay.
The test system of data set [9] is N2a-cl3. The data set can be described thus: Inhibition of RML prion protein infected in mouse stationary-phase ScN2a-cl3 cells expressing full length mouse PrP assessed as reduction of PrPsc level at 10 uM after 5 days by ELISA. Type of data set: cell-based.
Another data set in a line: in vitro. To be noted: mouse, dividing ScN2a-cl3 cells.

pEC50: −log10 of the molar value.

For the molecule `N#Cc1sc2nc(-c3ccc4c(c3)OCO4)ccc2c1N`, the Kp in data set [1] was found to be 4.72. Besides, the Cmax in data set [2] was 130 nM. Also, the AUC(0-t) amounted to 1.56 µM·h in [3] and 7.36 µM·h in data set [4]. The pEC50 was 6.28 in data set [5] and 6.01 in the data set “cells”.
For `Cc1ccc2[nH]c3c(c2c1)CCCC3NCCCN(C)C` (stereo not drawn), the CC50 at 120 h (in data set [6]; in “in vitro”) was above 10000 nM in each case. Further, the pEC50 is 5.12 in data set [7] and 5.80 in the data set “cells”. Moreover, the inhibition with N2a-cl3 [8] was 88%; in the data set on N2a-cl3 [9], 94%.
As for `CN1CCN(c2ccc(Nc3ccnc4cc(Cl)ccc34)cc2)CC1`, the Kp in data set [1] stood at 2.59. Also, the peak concentration (Cmax) in data set [2] was determined as 410 nM. For the same molecule, the AUC(0-t) in [3] was 0.82 µM·h; in data set [4], 2.12 µM·h. Also, the pEC50 in data set [5] was 5.68; in the data set “cells”, 5.87.

As usually defined, the Cmax is the highest concentration seen after dosing. A word on the AUC(0-t): it is the area under the concentration-time curve up to a stated or last time point. Higher therefore signals more exposure. As a reminder, the pEC50 is the EC50 on a negative log10 scale, so that one unit is a factor of ten. As a reminder, the inhibition is the drop in the measured response relative to a control, in per cent.

These data come from ChEMBL document CHEMBL3091297, “Antiprion compounds that reduce PrP(Sc) levels in dividing and stationary-phase cells” (Bioorg Med Chem, 2013).
